This is an account of results in patent publication US20070049593A1 (priority 2004, published 2007).

This assay has as its target T1, HCV polymerase (Hepatitis C virus genotype 1b, UniProt P26663).
T1 construct: a region encoding NS5B (J Virol 1991 March, 65(3), 1105-13, 544 amino acids after deletion of 47 amino acids on the C-terminal); 6xHis (C); made in house; host or cells: Escherichia coli
Put plainly: biochemical. Also on record: species or system HCV BK strain. The gist of the method: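 Recombinant HCV BK-strain NS5B (C-terminal 47 aa deleted, His6-tagged, E. coli), 0.5 μg/ml, run with 5 μg/ml in vitro-transcribed RNA template (polyU/3′X), ATP/GTP/CTP 50 μM, UTP 2 μM plus [3H]UTP, pH 7.5, 25° C, 90 min. TCA-precipitated RNA counted by scintillation; IC50 from activity with vs without compound.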

Structures can show the parent of a compound that is named as a salt. Where two headings read alike, the source gives them in different places.

T1 sequence (P26663 2420-2963): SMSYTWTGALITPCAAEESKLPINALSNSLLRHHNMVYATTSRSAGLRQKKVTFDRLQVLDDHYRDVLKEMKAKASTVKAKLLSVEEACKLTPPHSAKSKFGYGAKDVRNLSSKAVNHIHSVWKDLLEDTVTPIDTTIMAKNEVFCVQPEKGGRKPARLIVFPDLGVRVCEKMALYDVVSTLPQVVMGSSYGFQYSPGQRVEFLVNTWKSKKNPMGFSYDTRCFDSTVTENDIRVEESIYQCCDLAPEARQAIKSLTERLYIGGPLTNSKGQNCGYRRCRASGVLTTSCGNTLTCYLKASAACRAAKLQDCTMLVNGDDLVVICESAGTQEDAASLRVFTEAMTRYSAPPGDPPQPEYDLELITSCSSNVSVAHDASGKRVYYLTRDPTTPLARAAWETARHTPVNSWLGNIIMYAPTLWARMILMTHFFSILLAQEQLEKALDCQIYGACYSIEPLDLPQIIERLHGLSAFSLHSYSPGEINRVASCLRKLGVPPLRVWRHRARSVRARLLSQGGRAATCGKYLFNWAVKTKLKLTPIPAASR

In the case of `O=C(O)c1ccc2c(C3CCCCC3)c3n(c2c1)CSc1ccccc1-3` [Example 12-2, 11-cyclohexyl-5-thia-6a-azabenzo[a]fluorene-8-carboxylic acid], the half-inhibitory concentration (IC50) lay within 100 to 1000 nM. For the compound `COc1ccc2c(c1)OCCn1c-2c(C2CCCCC2)c2ccc(C(=O)NC3(C(=O)Nc4ccc(C(=O)O)cc4)CCOCC3)cc21` [Example 2-402, 4-({4-[(12-cyclohexyl-3-methoxy-6,7-dihydro-5-oxa-7a-azadibenzo[a,e]azulene-9-carbonyl)amino]tetrahydropyran-4-carbonyl}amino)benzoic acid], the IC50 is less than 100 nM. As for `COCCCC1CCCN(CCN2CCn3c(c(C4CCCCC4)c4ccc(C(=O)O)cc43)-c3ccc(C)cc32)C1` [Example 1-540, 13-cyclohexyl-5-{2-[(S)-3-(3-methoxypropyl)piperidin-1-yl]ethyl}-3-methyl-6,7-dihydro-5H-benzo[5,6][1,4]diazepino[7,1-a]indole-10-carboxylic acid dihydrochloride], the IC50 was less than 100 nM. For the compound `COc1ccc2c(c1)OCCn1c-2c(C2CCCCC2)c2ccc(C(=O)NC(C)(C)c3ncc(-c4ccc(C(=O)O)cc4)[nH]3)cc21` [Example 2-540, 4-(2-{1-[(12-cyclohexyl-3-methoxy-6,7-dihydro-5-oxa-7a-azadibenzo[a,e]azulene-9-carbonyl)amino]-1-methylethyl}-3H-imidazol-4-yl)benzoic acid monohydrochloride], the IC50 (read-out: HCV polymerase inhibitory activity IC50, 25° C., 90 min, [5,6-3H]UTP incorporation into RNA) was less than 100 nM. For the compound `COCC(C)(NC(=O)c1ccc2c(C3CCCCC3)c3n(c2c1)CCOc1ccccc1-3)C(=O)Nc1ccc(/C=C/C(=O)O)cc1` (stereo not shown) [Example 2-163, (E)-3-(4-{2-[(12-cyclohexyl-6,7-dihydro-5-oxa-7a-azadibenzo[a,e]azulene-9-carbonyl)amino]-3-methoxy-2-methylpropionylamino}phenyl)acrylic acid], the IC50 was less than 100 nM. The same measure, in the same setting: the figure for `COC(=O)Nc1ccc(C[C@H](NC(=O)c2ccc3c(C4CCCCC4)c4n(c3c2)CCOc2cc(OC)ccc2-4)C(=O)OC)cc1` [Example 2-362, methyl (S)-2-[(12-cyclohexyl-3-methoxy-6,7-dihydro-5-oxa-7a-azadibenzo[a,e]azulene-9-carbonyl)amino]-3-(4-methoxycarbonylaminophenyl)propionate] is less than 100 nM; for `CN(C)CCN1CCn2c(c(C3CCCCC3)c3ccc(C(=O)O)cc32)-c2ccc(OCc3cccc([N+](=O)[O-])c3)cc21` [Example 1-579, 13-cyclohexyl-5-(2-dimethylaminoethyl)-3-(3-nitrobenzyloxy)-6,7-dihydro-5H-benzo[5,6][1,4]diazepino[7,1-a]indole-10-carboxylic acid dihydrochloride] it is less than 100 nM. With `CC(C)(CNc1ccc(C(=O)O)cc1)NC(=O)c1ccc2c(C3CCCCC3)c3n(c2c1)CCOc1ccccc1-3` [Example 2-183, 4-{2-[(12-cyclohexyl-6,7-dihydro-5-oxa-7a-azadibenzo[a,e]azulene-9-carbonyl)amino]-2-methylpropylamino}benzoic acid], the IC50 is less than 100 nM. With `O=C(O)c1ccc2c(C3CCCCC3)c3n(c2c1)CCN(CCN1Cc2ccccc2C1)c1ccccc1-3` [Example 1-145, 13-cyclohexyl-5-[2-(1,3-dihydroisoindol-2-yl)ethyl]-6,7-dihydro-5H-benzo[5,6][1,4]diazepino[7,1-a]indole-10-carboxylic acid dihydrochloride], the IC50 was less than 100 nM. The same measure, in the same setting: the figure for `COc1ccc2c(c1)N(CCN1CCOCC1)CCn1c-2c(C2CCCCC2)c2ccc(C(=O)O)cc21` [Example 1-67, 13-cyclohexyl-3-methoxy-5-[2-(morpholin-4-yl)ethyl]-6,7-dihydro-5H-benzo[5,6][1,4]diazepino[7,1-a]indole-10-carboxylic acid dihydrochloride] is less than 100 nM.

The IC50 is the concentration that inhibits the measured activity by half.
